# How the values were obtained:
# serum ALT = experiment: Rat total liver ischemia/reperfusion model: serum ALT (liver function); assay type: in vivo, Sprague-Dawley rats; conditions: 100 μg/kg in terms of S1P via tail vein 10 min before 20 min total liver ischemia
# Protocol: (§1) Male Sprague-Dawley (hereinbelow, SD) rats, 200 to 250 g, were obtained from CLEA Japan, Inc. (Tokyo, Japan). Four groups of SD rats were studied.
# (§2) A study was conducted for a methanol-administration group, where methanol was the solvent for S1P (the content of administration:methanol (50 μl)+3% BSA (150 μl), 200 μl in total), a HA-administration group (the content of administration: 8 kDa HA dissolved in methanol:ultrapure water=1:3 at 0.32564 g/l, 200 μl in total), an S1P-administration group (the content of administration: 100 μg/kg in terms of the dose of S1P, S1P (50 μl)+3% BSA (150 μl), 200 μl in total), a HA-S1P-administration group (the content of administration: 100 μg/kg in terms of the dose of S1P, the HA-S1P formulation prepared at Hokkaido University was dissolved in methanol:ultrapure water=1:3 at 0.358 g/l, 200 μl in total).
# Each agent was injected into the tail vein of rats. Ten minutes after the injection, the hepatic artery, portal vein, and bile duct were occluded at once with microclips for 20 minutes. Upon completion of 20 minutes of total liver ischemia, the occlusion was released. For pathological examination, liver tissues were removed from 10 to 15 rats in each group 120 minutes after reperfusion. Also, blood was collected immediately before the injection of the agents and 30 minutes, 60 minutes, and 120 minutes after reperfusion.
# In order to evaluate the injury of liver parenchyma, the serum ALT value was measured with an autoanalyzer (FUJI DRI-CHEM 7000V, Fujifilm, Tokyo, Japan).
# Statistical analysis was conducted using the Kruskal Wallis H-test and the Mann-Whitney U test with Bonferroni correction as a post hoc test. Also, p< 0.05 was accepted to be indicative of statistical significance.
# Using 200 to 250 g SD rats, four experimental groups (A) to (D) were prepared. […]
# [1] = Accumulation of S1P in the liver by Western blot; assay type: in vivo, rat; conditions: Western blot with anti-S1P antibody; versus the S1P only sample
# Protocol: The expression of S1P in the liver tissues was confirmed by Western blot in accordance with the following method.
# The rat liver tissues stored at −80° C. were homogenized in a buffer prepared from various reagents (150 mmol/L NaCl, 50 mM Tris-Cl, 1% NP-40, and a protease inhibitor). The resulting samples were centrifuged and the supernatants were collected for analysis. The samples thus obtained were separated using 10% SDS-PAGE gel and transferred to nitrocellulose membranes (Millipore, Bedford, Mass.). As the primary antibody, Anti-S1P antibody (ab140592) (1:1000, rabbit polyclonal, Abcam, Cambridge, UK) was used. As the secondary antibody, Anti-rabbit IgG, HRP-linked antibody (#7074S) (1:1000, Cell Signalling Technology, Beverley, Mass., USA) was used.
# HO-1 = experiment: Rat liver ischemia/reperfusion model: Western blot of HO-1 in liver tissue; assay type: in vivo, Sprague-Dawley rats; conditions: liver tissue 120 minutes after reperfusion
# Protocol: as §1, §2
# (§3) Each agent was injected into the tail vein of rats. Ten minutes after the injection, the hepatic artery, portal vein, and bile duct were occluded at once with microclips for 20 minutes. Upon completion of 20 minutes of total liver ischemia, the occlusion was released. For pathological examination, liver tissues were removed from 10 to 15 rats in each group 120 minutes after reperfusion. Also, blood was collected immediately before the injection of the agents and 30 minutes, 60 minutes, and 120 minutes after reperfusion. […]
# [2] = tested on: liver sinusoidal endothelial cells; experiment: Rat liver ischemia/reperfusion model: electron microscopic evaluation of the microstructure of liver; assay type: in vivo, Sprague-Dawley rats; conditions: liver excised 120 minutes after reperfusion
# Protocol: as §1, §2
# as §3, with “reperfusion.” for “reperfusion. Also, blood was collected immediately before the injection of the agents and 30 minutes, 60 minutes, and 120 minutes after reperfusion.”
# The liver sinusoidal endothelial cells after ischemia/reperfusion were evaluated with an electron microscopy. […]
# sinusoid structure = experiment: Rat liver ischemia/reperfusion model: HE staining, pathological evaluation of liver; assay type: in vivo, Sprague-Dawley rats; conditions: liver tissue 120 minutes after reperfusion; 200× field
# Protocol: as §1, §2
# Each agent was injected into the tail vein of rats. Ten minutes after the injection, the hepatic artery, portal vein, and bile duct were occluded at once with microclips for 20 minutes. Upon completion of 20 minutes of total liver ischemia, the occlusion was released. […]
# The liver tissues were fixed in 10% buffered formalin, and then embedded in paraffin, followed by staining with hematoxylin and eosin. The tissue sections of each group were evaluated. […]
# TUNEL-positive cells = experiment: Rat liver ischemia/reperfusion model: TUNEL staining of liver (apoptosis-positive cells); assay type: in vivo, Sprague-Dawley rats
# Protocol: as §1, §2
# Each agent was injected into the tail vein of rats. Ten minutes after the injection, the hepatic artery, portal vein, and bile duct were occluded at once with microclips for 20 minutes. […]
# Using DeadEnd® Colorimetric TUNEL System (G7360) supplied by Promega KK, apoptosis-positive cells were immunohistochemically detected. The tissue sections of each group were evaluated. The number of TUNEL-positive cells and the total number of hepatocytes were counted in 10 randomly selected high-power fields (400×) focusing on the portal vein. […]
# cleaved caspase 3 = experiment: Rat liver ischemia/reperfusion model: Western blot of cleaved caspase 3 in liver tissue; assay type: in vivo, Sprague-Dawley rats; conditions: liver tissue 120 minutes after reperfusion
# Protocol: as §1, §2, §3
substance,measurement,setting,value
hyaluronic acid modified with sphingosine-1-phosphate [HA-S1P],serum ALT value,"serum ALT; 30 minutes after reperfusion, versus vehicle and S1P groups",significantly lower
same,serum ALT value,"serum ALT; 60 minutes after reperfusion, versus vehicle, HA and S1P groups",significantly lower
same,serum ALT value,"serum ALT; 120 minutes after reperfusion, versus HA group",significantly lower
same,expression of S1P in the liver tissues,[1],higher
same,expression of HO-1,HO-1,increased
same,microstructure of LSECs (electron microscopic images),[2],undercoat structure of LSECs was maintained
same,sinusoid structure (HE staining),sinusoid structure,sinusoid structure was maintained
same,percentage of TUNEL-positive cells (TUNEL-positive cells/total number of hepatocytes),"TUNEL-positive cells; 400× fields centering around Zone 1, 10 fields per sample, 120 minutes after reperfusion",significantly low
same,"TUNEL staining, positive cells",TUNEL-positive cells; liver tissue 120 minutes after reperfusion,positive cells were almost unobserved
same,expression of the apoptosis-related protein cleaved caspase 3,cleaved caspase 3,inhibited

# Reference: patent publication US10485874B2, “Hyaluronic acid modified by sphingosine-1-phosphoric acid” (priority 2014, dated 2019)
